Reference: patent US20180265515A1 (Genentech, Inc., priority 2015, published 2018)

Tests used:
[1] = system: JAK1-dependent STAT6 phosphorylation downstream of IL-13 stimulation in BEAS-2B human bronchial epithelial cells; assay: JAK1 pathway assay in BEAS-2B cells (IL-13 stimulated STAT6 phosphorylation, MSD); assay type: cell-based; details: read-out: P-STAT6 BEAS2B + IL13 IC50
Method in brief: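 BEAS-2B human bronchial epithelial cells, plated the day before in complete growth medium, were preincubated with compound for 1 hr at 37° C (0.2% DMSO final), then stimulated with IL-13 at its EC90 for 15 min. STAT6 phosphorylation in lysates was read by MSD; EC50 was taken as 50% inhibition versus DMSO control.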

[2] = target: T1, isolated recombinant JAK2 kinase domain (Homo sapiens, UniProt O60674); assay: JAK2 enzyme assay (Caliper LabChip, Ki); assay type: biochemical; details: 25 μM ATP
T1 construct: The activity of the isolated recombinant JAK1 and JAK2 kinase domain was measured
T1 sequence (O60674 849-1124 limits assumed): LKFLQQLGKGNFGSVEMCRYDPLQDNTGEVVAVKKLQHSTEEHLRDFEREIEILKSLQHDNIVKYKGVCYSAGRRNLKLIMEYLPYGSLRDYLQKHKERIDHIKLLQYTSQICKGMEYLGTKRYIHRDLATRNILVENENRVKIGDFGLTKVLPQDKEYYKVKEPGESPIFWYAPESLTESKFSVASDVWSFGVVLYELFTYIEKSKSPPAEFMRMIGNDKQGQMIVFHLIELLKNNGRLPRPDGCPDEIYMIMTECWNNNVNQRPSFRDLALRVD
Method in brief: (§1)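 Phosphorylation of a fluorescent JAK3-derived dodecapeptide by recombinant human JAK1 or JAK2 catalytic domain is monitored through electrophoretic product/substrate separation. Incubation lasts 30 minutes at 22° C; EDTA quench. Morrison-model Ki values account for ATP competition.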

[3] = target: T2, isolated recombinant JAK1 kinase domain (Homo sapiens, UniProt P23458); assay: JAK1 enzyme assay (Caliper LabChip, Ki); assay type: biochemical; details: recombinant JAK1 kinase domain, 25 μM ATP
T2 construct: The activity of the isolated recombinant JAK1 and JAK2 kinase domain was measured
T2 sequence (P23458 875-1153 limits assumed): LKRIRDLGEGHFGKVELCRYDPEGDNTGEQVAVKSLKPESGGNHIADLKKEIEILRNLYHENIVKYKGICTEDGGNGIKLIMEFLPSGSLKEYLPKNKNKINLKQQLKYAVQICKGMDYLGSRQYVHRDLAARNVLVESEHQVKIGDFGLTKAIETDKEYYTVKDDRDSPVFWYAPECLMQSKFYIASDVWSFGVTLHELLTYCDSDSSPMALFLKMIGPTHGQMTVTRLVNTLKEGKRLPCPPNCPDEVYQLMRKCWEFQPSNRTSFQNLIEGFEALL
Method in brief: as §1

Ki [2]	Ki [3]	Compound	IC50 [1]
0.25 nM	0.23 nM	CSc1ccc(OC(F)F)c(-c2nn(CC(=O)N3CCC(N4CCn5ccnc5C4)CC3)cc2NC(=O)c2cnn3cccnc23)c1 [Example 73, N-[3-[2-(difluoromethoxy)-5-methylsulfanyl-phenyl]-1-[2-[4-(6,8-dihydro-5H-imidazo[1,2-a]pyrazin-7-yl)-1-piperidyl]-2-oxo-ethyl]pyrazol-4-yl]pyrazolo[1,5-a]pyrimidine-3-carboxamide]	39 nM
0.58 nM	0.3 nM	CSc1ccc(OC(F)F)c(-c2nn(CC(=O)N3CCC(CN4CCN(C(=O)CN(C)C)CC4)CC3)cc2NC(=O)c2cnn3cccnc23)c1 [Example 74, N-[3-[2-(difluoromethoxy)-5-methylsulfanyl-phenyl]-1-[2-[4-[[4-[2-(dimethylamino)acetyl]piperazin-1-yl]methyl]-1-piperidyl]-2-oxo-ethyl]pyrazol-4-yl]pyrazolo[1,5-a]pyrimidine-3-carboxamide]	50 nM
1 nM	1.4 nM	CSc1ccc(OC(F)F)c(-c2nn(C3(CC#N)CN(C)C3)cc2NC(=O)c2cnn3cccnc23)c1 [Example 76, N-(1-(3-(cyanomethyl)-1-methylazetidin-3-yl)-3-(2-(difluoromethoxy)-5-(methylthio)phenyl)-1H-pyrazol-4-yl)pyrazolo[1,5-a]pyrimidine-3-carboxamide]	60 nM
0.33 nM	0.47 nM	CSc1ccc(OC(F)F)c(-c2nn(C3(CC#N)CNC3)cc2NC(=O)c2cnn3cccnc23)c1 [Example 77, N-(1-(3-(cyanomethyl)azetidin-3-yl)-3-(2-(difluoromethoxy)-5-(methylthio)phenyl)-1H-pyrazol-4-yl)pyrazolo[1,5-a]pyrimidine-3-carboxamide]	27 nM
0.72 nM	0.92 nM	CSc1ccc(OC(F)F)c(-c2nn(C3(CC#N)CN(C(=O)OC(C)(C)C)C3)cc2NC(=O)c2cnn3cccnc23)c1 [Example 78, tert-butyl 3-(cyanomethyl)-3-[3-[2-(difluoromethoxy)-5-methylsulfanyl-phenyl]-4-(pyrazolo[1,5-a]pyrimidine-3-carbonylamino)pyrazol-1-yl]azetidine-1-carboxylate]	69 nM
0.44 nM	0.39 nM	CSc1ccc(OC(F)F)c(-c2nn(CC(=O)N3CCC(N4CCn5nccc5C4)CC3)cc2NC(=O)c2cnn3cccnc23)c1 [Example 79, N-[3-[2-(difluoromethoxy)-5-methylsulfanyl-phenyl]-1-[2-[4-(6,7-dihydro-4H-pyrazolo[1,5-a]pyrazin-5-yl)-1-piperidyl]-2-oxo-ethyl]pyrazol-4-yl]pyrazolo[1,5-a]pyrimidine-3-carboxamide]	35 nM
0.43 nM	0.26 nM	CSc1ccc(OC(F)F)c(-c2nn(CC(=O)N3CCC(CN4CCN(C(C)=O)CC4)CC3)cc2NC(=O)c2cnn3cccnc23)c1 [Example 80, N-[1-[2-[4-[(4-acetylpiperazin-1-yl)methyl]-1-piperidyl]-2-oxo-ethy]-3-[2-(difluoromethoxy)-5-methylsulfanyl-phenyl]pyrazol-4-yl]pyrazolo[1,5-a]pyrimidine-3-carboxamide]	16 nM
0.23 nM	0.35 nM	CSc1ccc(OC(F)F)c(-c2nn(Cc3cn(C4CCN(C5CCOCC5)CC4)nn3)cc2NC(=O)c2cnn3cccnc23)c1 [Example 81, N-(3-(2-(difluoromethoxy)-5-(methylthio)phenyl)-1-((1-(1-(tetrahydro-2H-pyran-4-yl)piperidin-4-yl)-1H-1,2,3-triazol-4-yl)methyl)-1H-pyrazol-4-yl)pyrazolo[1,5-a]pyrimidine-3-carboxamide]	8.1 nM
0.41 nM	0.29 nM	COCC(=O)N1CCN(CC2CCN(C(=O)Cn3cc(NC(=O)c4cnn5cccnc45)c(-c4cc(SC)ccc4OC(F)F)n3)CC2)CC1 [Example 82, N-[3-[2-(difluoromethoxy)-5-methylsulfanyl-phenyl]-1-[2-[4-[[4-(2-methoxyacetyl)piperazin-1-yl]methyl]-1-piperidyl]-2-oxo-ethyl]pyrazol-4-yl]pyrazolo[1,5-a]pyrimidine-3-carboxamide]	34 nM

The remaining lines, values behind:

Compound	Ki [2]	Ki [3]	IC50 [1]
CSc1ccc(OC(F)F)c(-c2nn(CC(=O)N3CCC(N(C)CCC(=O)N4CCC4)CC3)cc2NC(=O)c2cnn3cccnc23)c1 [Example 68, N-[1-[2-[4-[[3-(azetidin-1-yl)-3-oxo-propyl]-methyl-amino]-1-piperidyl]-2-oxo-ethyl]-3-[2-(difluoromethoxy)-5-methylsulfanyl-phenyl]pyrazol-4-yl]pyrazolo[1,5-a]pyrimidine-3-carboxamide]	0.85 nM	0.47 nM	300 nM
CSc1ccc(OC(F)F)c(-c2nn(CC(=O)N3CCC(N4CCN(C5COC5)CC4)CC3)cc2NC(=O)c2cnn3cccnc23)c1 [Example 69, N-[3-[2-(difluoromethoxy)-5-methylsulfanyl-phenyl]-1-[2-[4-[4-(oxetan-3-yl)piperazin-1-yl]-1-piperidyl]-2-oxo-ethyl]pyrazol-4-yl]pyrazolo[1,5-a]pyrimidine-3-carboxamide]	0.71 nM	0.35 nM	50 nM
CSc1ccc(OC(F)F)c(-c2nn(CC(=O)N3CCC(N4CCN(C5CCOCC5)CC4)CC3)cc2NC(=O)c2cnn3cccnc23)c1 [Example 70, N-[3-[2-(difluoromethoxy)-5-methylsulfanyl-phenyl]-1-[2-oxo-2-[4-(4-tetrahydropyran-4-ylpiperazin-1-yl)-1-piperidyl]ethyl]pyrazol-4-yl]pyrazolo[1,5-a]pyrimidine-3-carboxamide]	0.82 nM	0.42 nM	38 nM
CSc1ccc(OC(F)F)c(-c2nn(CC(=O)N3CCC(OCC(=O)N4CCN(C)CC4)CC3)cc2NC(=O)c2cnn3cccnc23)c1 [Example 71, N-(3-(2-(difluoromethoxy)-5-(methylthio)phenyl)-1-(2-(4-(2-(4-methylpiperazin-1-yl)-2-oxoethoxy)piperidin-1-yl)-2-oxoethyl)-1H-pyrazol-4-yl)pyrazolo[1,5-a]pyrimidine-3-carboxamide]	1.1 nM	0.59 nM	83 nM
CSc1ccc(OC(F)F)c(-c2nn(CC(=O)N3CCC(N4CCn5cncc5C4)CC3)cc2NC(=O)c2cnn3cccnc23)c1 [Example 72, N-[3-[2-(difluoromethoxy)-5-methylsulfanyl-phenyl]-1-[2-[4-(6,8-dihydro-5H-imidazo[1,5-a]pyrazin-7-yl)-1-piperidyl]-2-oxo-ethyl]pyrazol-4-yl]pyrazolo[1,5-a]pyrimidine-3-carboxamide]	0.36 nM	0.4 nM	110 nM
CSc1ccc(OC(F)F)c(-c2nn(CC(=O)N3CCC(N4CC5CC(C4)O5)CC3)cc2NC(=O)c2cnn3cccnc23)c1 [Example 75, N-[3-[2-(difluoromethoxy)-5-methylsulfanyl-phenyl]-1-[2-[4-(6-oxa-3-azabicyclo[3.1.1]heptan-3-yl)-1-piperidyl]-2-oxo-ethyl]pyrazol-4-yl]pyrazolo[1,5-a]pyrimidine-3-carboxamide]	0.38 nM	0.28 nM	12 nM
